{"source": "patent US20230398047A1", "about": "“COMPOSITION COMPRISING SKIN CARE ACTIVE INGREDIENT AND TWO POLYGLYCERYL FATTY ACID ESTERS” (L'OREAL, priority 2021, published 2023)", "origin": "cited, not measured here"}
{"conditions": "octan-1-ol/water; values said to be known or calculated"}
{"smiles": "O=C1O[C@H]([C@@H](O)CO)C(O)=C1O[C@H]1O[C@H](CO)[C@@H](O)[C@H](O)[C@H]1O", "note": "[ASCORBYL GLUCOSIDE, ascorbyl glucoside]", "logP": "ASCORBYL GLUCOSIDE (logP = −3.4)"}
{"smiles": "NC(=O)c1cccnc1", "note": "[NIACINAMIDE, niacinamide, reference compound]", "logP": "NIACINAMIDE (LogP = −0.37)"}
{"smiles": "CC(c1ccccc1)c1ccc(O)cc1O", "note": "(centres unmarked) [PHENYLETHYL RESORCINOL, 4-(1-phenylethyl)-1,3-benzenediol]", "logP": "PHENYLETHYL RESORCINOL(logP = 3.07)"}
{"smiles": "CCOC1=C(O)C(=O)O[C@@H]1[C@@H](O)CO", "note": "[3-O-ETHYL ASCORBIC ACID, 3-O-ethyl ascorbic acid]", "logP": "3-O-ETHYL ASCORBIC ACID (LogP = −1.3)"}
{"smiles": "CC(O)C[C@H]1OC[C@@H](O)[C@H](O)[C@H]1O", "note": "(stereo partly drawn) [HYDROXYPROPYL TETRAHYDROPYRANTRIOL, C-beta-D-xylopyranoside-2-hydroxpropane]", "logP": "HYDROXYPROPYL TETRAHYDROPYRANTRIOL (logP = −1.5)"}
